Legend:
Cbl (aa49-434) = target: T1, Cbl (aa49-434) (Homo sapiens, UniProt P22681); experiment: Co-expressed Cbl with BirA biochemical assay (CBL/E2-Ub binding, HTRF); conditions: 0.6 nM Cbl co-expressed with BirA, read-out: co-express CBL/E2-Ub-binding assay IC50
T1 construct: Cbl (aa49-434, in-house); made in house
T1 sequence (P22681 49-434): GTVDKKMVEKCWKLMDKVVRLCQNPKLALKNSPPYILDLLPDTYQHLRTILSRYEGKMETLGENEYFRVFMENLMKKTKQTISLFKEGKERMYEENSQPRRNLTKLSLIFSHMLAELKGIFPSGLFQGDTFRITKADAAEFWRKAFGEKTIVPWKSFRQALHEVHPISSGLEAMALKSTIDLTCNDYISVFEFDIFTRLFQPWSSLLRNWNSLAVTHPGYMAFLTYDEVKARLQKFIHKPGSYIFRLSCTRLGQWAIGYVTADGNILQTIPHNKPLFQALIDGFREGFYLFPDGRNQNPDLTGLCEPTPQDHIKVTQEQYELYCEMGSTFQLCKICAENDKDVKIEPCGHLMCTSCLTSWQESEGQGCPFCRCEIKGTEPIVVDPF
Text: (§1) The assay in the absence of a Cbl-b/Cbl inhibitor, where phosphorylation of Cbl-b/Cbl by the Src kinase allows UbcH5B-Ub to bind to Cbl-b/Cbl and brings the Bodipy-Fluorescein tagged ubiquitin in proximity to the streptavidin-terbium bound to the N-terminal biotinylated Avi-tagged Cbl-b/Cbl. […] The lack of a FRET signal indicates Cbl-b/Cbl is inhibited by the Cbl-b/Cbl inhibitor.

Cbl-b (aa36-427) = target: T2, Cbl-b (aa36-427) (Homo sapiens, UniProt Q13191); experiment: Co-expressed Cbl-b with BirA biochemical assay (CBLB/E2-Ub binding, HTRF); conditions: 0.6 nM Cbl-b co-expressed with BirA, HTRF; read-out: co-express CBLB/E2-Ub-binding assay IC50
T2 construct: Cbl-b (aa36-427, in-house); made in house
Text: as §1

T2 sequence (Q13191 36-427): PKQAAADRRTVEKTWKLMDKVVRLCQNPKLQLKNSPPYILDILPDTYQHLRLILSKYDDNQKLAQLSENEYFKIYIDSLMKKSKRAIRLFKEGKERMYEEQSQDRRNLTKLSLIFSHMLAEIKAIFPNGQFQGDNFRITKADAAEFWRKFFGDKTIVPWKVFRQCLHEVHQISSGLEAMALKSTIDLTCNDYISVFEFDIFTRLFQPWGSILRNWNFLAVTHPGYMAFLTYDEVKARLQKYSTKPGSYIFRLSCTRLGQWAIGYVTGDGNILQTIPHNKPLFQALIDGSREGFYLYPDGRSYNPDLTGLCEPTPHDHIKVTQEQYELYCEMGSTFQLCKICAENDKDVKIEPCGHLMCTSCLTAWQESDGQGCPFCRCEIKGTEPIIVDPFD

Row | SMILES | IC50 (Cbl (aa49-434)) [nM] | IC50 (Cbl-b (aa36-427)) [nM]
1 | Cc1cnc2c(C(=O)Nc3cncc([C@]4(c5nncn5C)C[C@@H](C)C4)c3)cc(CN[C@H]3C[C@@H](C)C3)cn12 [Compound A86, 3-methyl-N-(5-((1s, 3s)-3-methyl-1-(4-methyl-4H-1,2,4-triazol-3-yl)cyclobutyl)pyridin-3-yl)-6-((((1s, 3s)-3-methylcyclobutyl)amino)methyl)imidazo[1,2-a]pyridine-8-carboxamide] | 13 | 2.7
2 | C[C@H]1CCCN(Cc2cc(C(=O)Nc3cccc([C@]4(c5nncn5C)C[C@@H](C)C4)c3)nc3cc[nH]c23)C1 [Compound B4, N-(3-((1s,3R)-3-methyl-1-(4-methyl-4H-1,2,4-triazol-3-yl)cyclobutyl)phenyl)-7-(((S)-3-methylpiperidin-1-yl)methyl)-1H-pyrrolo[3,2-b]pyridine-5-carboxamide] | 12 | 3
3 | C[C@H](NCc1cc(C(=O)Nc2cccc([C@]3(c4nncn4C)C[C@@H](C)C3)c2)c2nccn2c1)C1CCCC1 [Compound A40, 6-((((S)-1-cyclopentylethyl)amino)methyl)-N-(3-((1s,3R)-3-methyl-1-(4-methyl-4H-1,2,4-triazol-3-yl)cyclobutyl)phenyl)imidazo[1,2-a]pyridine-8-carboxamide] | 3.1 | 1.6
4 | C[C@H](NCc1cc(C(=O)Nc2cccc([C@]3(c4nncn4C)C[C@@H](CC#N)C3)c2)c2nccn2c1)C1CCCC1 [Compound A31, N-(3-((1s,3R)-3-(cyanomethyl)-1-(4-methyl-4H-1,2,4-triazol-3-yl)cyclobutyl)phenyl)-6-((((S)-1-cyclopentylethyl)amino)methyl)imidazo[1,2-a]pyridine-8-carboxamide] | 1.3 | 0.7
5 | Cn1cnnc1[C@]1(c2cccc(NC(=O)c3cc(CNC4(C)CC4)cn4c(F)cnc34)c2)C[C@H](CC#N)C1 [Compound A17, N-(3-((1s, 3s)-3-(cyanomethyl)-1-(4-methyl-4H-1,2,4-triazol-3-yl)cyclobutyl)phenyl)-3-fluoro-6-(((1-methylcyclopropyl)amino)methyl)imidazo[1,2-a]pyridine-8-carboxamide] | 20.7 | 0.8
6 | C[C@H]1CCCN(Cc2cc(C(=O)Nc3cccc([C@]4(c5nncn5C)C[C@@H](CC#N)C4)c3)nc3cc[nH]c23)C1 [Compound B5, N-(3-((1s,3R)-3-(cyanomethyl)-1-(4-methyl-4H-1,2,4-triazol-3-yl)cyclobutyl)phenyl)-7-(((S)-3-methylpiperidin-1-yl)methyl)-1H-pyrrolo[3,2-b]pyridine-5-carboxamide] | 16 | 1.6
7 | Cc1cnc2c(C(=O)Nc3cccc([C@]4(c5nncn5C)C[C@@H](CC#N)C4)c3)cc(CN3CCC[C@H](C)C3)cn12 [Compound A10, 3-methyl-6-{[(3S)-3-methylpiperidin-1-yl]methyl}-N-{3-[(1s, 3s)-3-(cyanomethyl)-1-(4-methyl-1,2,4-triazol-3-yl)cyclobutyl]phenyl}imidazo[1,2-a]pyridine-8-carboxamide] | 70.1 | 12
8 | Cn1cnnc1[C@]1(c2cccc(NC(=O)c3cc(CNCC4(C)CCC4)cn4c(Cl)cnc34)c2)C[C@H](CC#N)C1 [Compound A35, 3-chloro-N-(3-((1s, 3s)-3-(cyanomethyl)-1-(4-methyl-4H-1,2,4-triazol-3-yl)cyclobutyl)phenyl)-6-((((1-methylcyclobutyl)methyl)amino)methyl)imidazo[1,2-a]pyridine-8-carboxamide] | 13 | 2.2
9 | Cn1cnnc1[C@]1(c2cncc(NC(=O)c3cc(CNCC4CCC4)c4ccsc4n3)c2)C[C@H](C)C1 [Compound B15, 4-(((cyclobutylmethyl)amino)methyl)-N-(5-((1s, 3s)-3-methyl-1-(4-methyl-4H-1,2,4-triazol-3-yl)cyclobutyl)pyridin-3-yl)thieno[2,3-b]pyridine-6-carboxamide] | 1.9 | 0.9
10 | Cn1cnnc1C[C@]1(c2cccc(NC(=O)c3cc(CNCC4(C)CCCC4)c4[nH]ccc4n3)c2)C[C@H](C#N)C1 [Compound B23, N-(3-((1r, 3r)-3-cyano-1-((4-methyl-4H-1,2,4-triazol-3-yl)methyl)cyclobutyl)phenyl)-7-((((1-methylcyclopentyl)methyl)amino)methyl)-1H-pyrrolo[3,2-b]pyridine-5-carboxamide] | 8.8 | 3.6
11 | Cn1cnnc1[C@]1(c2cccc(NC(=O)c3cc(CNCC4CCC(F)(F)CC4)c4[nH]ccc4n3)c2)C[C@H](CC#N)C1 [Compound B22, N-(3-((1s, 3s)-3-(cyanomethyl)-1-(4-methyl-4H-1,2,4-triazol-3-yl)cyclobutyl)phenyl)-7-((((4,4-difluorocyclohexyl)methyl)amino)methyl)-1H-pyrrolo[3,2-b]pyridine-5-carboxamide] | 19.5 | 4
12 | Cn1cnnc1[C@]1(c2cccc(NC(=O)c3cc(CNCC4(F)CCC4)cn4ccnc34)c2)C[C@H](CC#N)C1 [Compound A37, N-(3-((1s, 3s)-3-(cyanomethyl)-1-(4-methyl-4H-1,2,4-triazol-3-yl)cyclobutyl)phenyl)-6-((((1-fluorocyclobutyl)methyl)amino)methyl)imidazo[1,2-a]pyridine-8-carboxamide] | 4.8 | 0.8
13 | Cn1cnnc1[C@]1(c2cccc(NC(=O)c3cc(CNC4(C)CCC4)cn4c(F)cnc34)c2)C[C@H](CC#N)C1 [Compound A61, N-(3-((1s, 3s)-3-(cyanomethyl)-1-(4-methyl-4H-1,2,4-triazol-3-yl)cyclobutyl)phenyl)-3-fluoro-6-(((1-methylcyclobutyl)amino)methyl)imidazo[1,2-a]pyridine-8-carboxamide] | 11.1 | 1.2
14 | Cn1cnnc1[C@]1(c2cncc(NC(=O)c3cc(CNCC4CCC4)c4[nH]cc(F)c4n3)c2)C[C@H](C)C1 [Compound B46, 7-{[(cyclobutylmethyl)amino]methyl}-3-fluoro-N-{5-[(1r, 3s)-3-methyl-1-(4-methyl-1,2,4-triazol-3-yl)cyclobutyl]pyridin-3-yl}-1H-pyrrolo[3,2-b]pyridine-5-carboxamide] | 2.7 | 0.7

Second part, the compound after the results:

Row | IC50 (Cbl (aa49-434)) [nM] | IC50 (Cbl-b (aa36-427)) [nM] | SMILES
15 | 2.6 | 0.5 | Cn1cnnc1[C@]1(c2cccc(NC(=O)c3cc(CNCC4CCC4)c4c(n3)C(F)(F)CC4)c2)C[C@H](C)C1 [Compound C56, 4-(((cyclobutylmethyl)amino)methyl)-7,7-difluoro-N-(3-((1s, 3s)-3-methyl-1-(4-methyl-4H-1,2,4-triazol-3-yl)cyclobutyl)phenyl)-6,7-dihydro-5H-cyclopenta[b]pyridine-2-carboxamide]
16 | 2.8 | 1.8 | C[C@H](NCc1cc(C(=O)Nc2cccc([C@]3(c4nncn4C)C[C@@H](CC#N)C3)c2)nc2c1NCC21CC1)C1CC1 [Compound C36, N-(3-((1s,3R)-3-(cyanomethyl)-1-(4-methyl-4H-1,2,4-triazol-3-yl)cyclobutyl)phenyl)-7′-((((S)-1-cyclopropylethyl)amino)methyl)-1′,2′-dihydrospiro[cyclopropane-1,3′-pyrrolo[3,2-b]pyridine]-5′-carboxamide]
17 | 6.3 | 2.7 | Cn1cnnc1C[C@]1(c2cccc(NC(=O)c3cc(CNC4CCCCC4)c4c(n3)C(C)(C)CO4)c2)C[C@H](C#N)C1 [Compound C48, N-(3-((1r, 3r)-3-cyano-1-((4-methyl-4H-1,2,4-triazol-3-yl)methyl)cyclobutyl)phenyl)-7-((cyclohexylamino)methyl)-3,3-dimethyl-2,3-dihydrofuro[3,2-b]pyridine-5-carboxamide]
18 | 9.6 | 4.2 | Cn1cnnc1[C@]1(c2cncc(NC(=O)c3cc(CNCC4CCC4)c4c(n3)C(C)(C)CC4)c2)C[C@H](C)C1 [Compound C29, 4-(((cyclobutylmethyl)amino)methyl)-7,7-dimethyl-N-(5-((1s, 3s)-3-methyl-1-(4-methyl-4H-1,2,4-triazol-3-yl)cyclobutyl)pyridin-3-yl)-6,7-dihydro-5H-cyclopenta[b]pyridine-2-carboxamide]
19 | 15.8 | 3.7 | CC(C)CNCc1cc(C(=O)Nc2cncc([C@]3(c4nncn4C)C[C@@H](C)C3)c2)nc2c1CCC2(F)F [Compound C53, 7,7-difluoro-4-{[(2-methylpropyl)amino]methyl}-N-{5-[(1r, 3s)-3-methyl-1-(4-methyl-1,2,4-triazol-3-yl)cyclobutyl]pyridin-3-yl}-5H,6H-cyclopenta[b]pyridine-2-carboxamide]
20 | 46.7 | 11.4 | Cn1cnnc1[C@]1(c2cccc(NC(=O)c3cc(CNCC4CCCC4)c4c(n3)C(C)(C)CO4)c2)C[C@H](C)C1 [Compound C33, 7-(((cyclopentylmethyl)amino)methyl)-3,3-dimethyl-N-(3-((1s, 3s)-3-methyl-1-(4-methyl-4H-1,2,4-triazol-3-yl)cyclobutyl)phenyl)-2,3-dihydrofuro[3,2-b]pyridine-5-carboxamide]
